Measured values published in ChEMBL document CHEMBL1201862, “PubChem BioAssay data set” (2004).
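96-well plates; 48 h exposure; 5 concentrations. Endpoints by linear interpolation between flanking doses. Not reached: highest tested concentration assigned. At the GI50, growth is halved.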 Activity calls are given as the source filed them. No stated cut-off is given here; in the data, active = GI50 up to about 1.1 µM and inactive = higher. Where a SMILES comes first, the peptide text is derived from it. [ ]: non-standard residue; d: D form. The star is where a group is joined. ξ: configuration not given here. ξPhe(4-NO2) = NC(Cc1ccc([N+](=O)[O-])cc1)C(=O)O; Boc = CC(C)(C)OC(=O)*

What was measured:
Assay in all cases: growth of human tumour cells (NCI), 48 h
RXF 393 = tested on: RXF 393
HCC 2998 = tested on: HCC 2998
NCI-H23 = tested on: NCI-H23
A549 = tested on: A549
ACHN = tested on: ACHN
Malme-3M = tested on: Malme-3M
SK-MEL-2 = tested on: SK-MEL-2
HT-29 = tested on: HT-29
MDA-MB-435 = tested on: MDA-MB-435
A498 = tested on: A498
TK-10 = tested on: TK-10
786-0 = tested on: 786-0
DU-145 = tested on: DU-145
NCI-H522 = tested on: NCI-H522
PC-3 = tested on: PC-3
RPMI-8226 = tested on: RPMI-8226
U-251 = tested on: U-251
IGROV-1 = tested on: IGROV-1
SK-MEL-5 = tested on: SK-MEL-5
UACC-62 = tested on: UACC-62

Row | Compound | GI50 (RXF 393) | GI50 (HCC 2998) | GI50 (NCI-H23) | GI50 (A549) | GI50 (ACHN) | GI50 (Malme-3M) | GI50 (SK-MEL-2) | GI50 (HT-29) | GI50 (MDA-MB-435) | GI50 (A498) | GI50 (TK-10) | GI50 (786-0) | GI50 (DU-145) | GI50 (NCI-H522) | GI50 (PC-3) | GI50 (RPMI-8226) | GI50 (U-251) | GI50 (IGROV-1) | GI50 (SK-MEL-5) | GI50 (UACC-62)
1 | O=[N+]([O-])c1cc2c(c3nonc13)OCCCCO2 | 7.74 µM (inactive) | 17.3 µM (inactive) | 10.2 µM (inactive) | 10.3 µM (inactive) | 6.22 µM (inactive) | 3.66 µM (inactive) | 13.8 µM (inactive) | 3.88 µM (inactive) | 5.25 µM (inactive) | 24.9 µM (inactive) | 21.8 µM (inactive) | 2.02 µM (inactive) | 15 µM (inactive) | 4.39 µM (inactive) | 14.9 µM (inactive) | 3.7 µM (inactive) | 7.1 µM (inactive) | 9.16 µM (inactive) | 8.61 µM (inactive) | 5.77 µM (inactive)
2 | C/C(Sc1ccccc1)=C1/CCCN(Cc2ccccc2)C1 | 16.6 µM (inactive) | 17.2 µM (inactive) | 23.9 µM (inactive) | 32.7 µM (inactive) | 31.4 µM (inactive) | 14.3 µM (inactive) | 17.2 µM (inactive) | 35.6 µM (inactive) | 25.1 µM (inactive) | 37.8 µM (inactive) | 18.6 µM (inactive) | 19.5 µM (inactive) | 47.5 µM (inactive) | 15.8 µM (inactive) | 21.9 µM (inactive) | 14.5 µM (inactive) | 20.5 µM (inactive) | 36.3 µM (inactive) | 14.3 µM (inactive) | 19.9 µM (inactive)
3 | O=S(=O)(O)C1CCC(O)C2NCCCC21 (stereo unspecified) | > 100 µM (inactive) | > 100 µM (inactive) |  | > 100 µM (inactive) | > 100 µM (inactive) | > 100 µM (inactive) | > 100 µM (inactive) | > 100 µM (inactive) | > 100 µM (inactive) | > 100 µM (inactive) | > 100 µM (inactive) | > 100 µM (inactive) | > 100 µM (inactive) | > 100 µM (inactive) | > 100 µM (inactive) | > 100 µM (inactive) | > 100 µM (inactive) | > 100 µM (inactive) | > 100 µM (inactive) | > 100 µM (inactive)
4 | C=C(C)C(=O)O[C@H]1CC2(CO)O[C@@H]2CC/C(COC(C)=O)=C/C2OC(=O)C(=C)[C@@H]21 (stereo partly specified) | 12.1 µM (inactive) | 44.6 µM (inactive) | 42.2 µM (inactive) | > 100 µM (inactive) | 26.1 µM (inactive) | 23.4 µM (inactive) | 52.4 µM (inactive) | 34.8 µM (inactive) | 31.8 µM (inactive) | > 100 µM (inactive) | 25.4 µM (inactive) | 20.2 µM (inactive) | > 96.6 µM (inactive) | 16.4 µM (inactive) | 56.1 µM (inactive) | 7.16 µM (inactive) | > 100 µM (inactive) | > 64.6 µM (inactive) | 28.3 µM (inactive) | 39.5 µM (inactive)
5 | CC(=O)O[C@H]1C(=O)[C@@]2(C)[C@H]([C@H](OC(=O)c3ccccc3)[C@]3(O)C[C@H](OC(=O)[C@H](O)[C@@H](NC(=O)c4ccco4)c4ccccc4)C(C)=C1C3(C)C)[C@]1(OC(C)=O)CO[C@@H]1C[C@@H]2O | 0.00407 µM (active) | < 0.00125 µM (active) | 0.00136 µM (active) | < 0.00125 µM (active) | 0.043 µM (active) |  | < 0.00125 µM (active) | < 0.00125 µM (active) | < 0.00125 µM (active) | 0.0141 µM (active) | 0.022 µM (active) | 0.00421 µM (active) | 0.00205 µM (active) | < 0.00125 µM (active) | < 0.00125 µM (active) | < 0.00125 µM (active) | < 0.00125 µM (active) | 0.0019 µM (active) | < 0.00125 µM (active) | < 0.00125 µM (active)
6 | CCNC(=O)CNC(=O)C(Cc1ccc([N+](=O)[O-])cc1)NC(=O)OC(C)(C)C (stereo unspecified) (Boc-[ξPhe(4-NO2)]-Gly-NHEt) | > 100 µM (inactive) | > 100 µM (inactive) | > 100 µM (inactive) | > 100 µM (inactive) | > 100 µM (inactive) | > 100 µM (inactive) |  | > 100 µM (inactive) | > 100 µM (inactive) | 53.6 µM (inactive) | > 100 µM (inactive) | > 100 µM (inactive) | > 100 µM (inactive) | > 100 µM (inactive) | > 100 µM (inactive) | > 100 µM (inactive) | > 100 µM (inactive) | > 100 µM (inactive) | > 100 µM (inactive) | > 100 µM (inactive)
7 | CN(C)CCN1C(=O)c2cccc3cc(N)cc(c23)C1=O [AMONAFIDE] | 4.06 µM (inactive) | 2.48 µM (inactive) | 3.91 µM (inactive) |  | 0.718 µM (active) | 3.31 µM (inactive) | 2.46 µM (inactive) | 3.3 µM (inactive) | 3.37 µM (inactive) | 3.58 µM (inactive) | 3.89 µM (inactive) | 2.2 µM (inactive) | 2.94 µM (inactive) | 3.71 µM (inactive) | 2.01 µM (inactive) | 2.49 µM (inactive) | 3.64 µM (inactive) | 3.49 µM (inactive) | 2.9 µM (inactive) | 3.38 µM (inactive)
